# Experiments:
# [1] = Non-clinical studies of excretion and elimination (normal rat); assay type: in vivo
# [2] = test system: serum iPTH; assay: Estimation of EC50, PK and clinically effective dose in patients with renal failure; design: species or system human
# Source text: EC50 value in patient with renal failure was estimated based on the calculated EC50 value in healthy adults and the results from the same analysis in normal rats and adenine-treated rat models (pathological rat models). […] Since the difference in the EC50 value between rats in normal state and pathological state is presumed to be caused by the changes in PK that are considered to greatly vary between normal state and pathological state, similar tendency is expected in human as well.
# The result from PK fitting, and the contribution rate of renal elimination of the drug (3.2%) calculated using PK-sim (registered trademark) were used to simulate PK prediction in the patients with renal failure. […] As a result, administration of a dose of 0.06 mg/man was estimated to maintain a concentration higher than 1.4 ng/mL for 72 hours (FIG. 2-8).
# [3] = test system: SHPT patients on maintenance hemodialysis; assay: Phase I/II clinical trial, repeated administration; assay type: in vivo, human; settings: for percentage decrease in the serum iPTH concentration: Day 22 (three days after the ninth administration)
# Procedure: Targeting SHPT patients on maintenance hemodialysis, pharmacokinetics, pharmacodynamics and safety upon single or repeated intravenous administration of Compound A1 were examined by conducting a double-blind test using a placebo as a control.
# Repeated administration: Based on the clinically effective dose calculated in Reference Example 5, the doses were given in 3 steps, namely, 0.05 mg, 0.1 mg, and 0.2 mg. The trial drug was (intravenously) infused from the venous side of the dialysis circuit before the end of dialysis three times a week for 22 days (total of 9 times) starting from the first day of administration of the trial drug. Here, the trial drug was administered by diluting a required dose taken from the Compound A1 vial formulation prepared as follows with sterilized water for injection, and filling a syringe with the resultant in accordance with the dose to be administered.
# Each item was evaluated according to the predetermined evaluation schedule.
# A vial formulation encapsulating 1 mg of Compound A1 in terms of a dehydrate, and sodium chloride, disodium hydrogen phosphate dodecahydrate, and sodium dihydrogen phosphate dihydrate as additives in 10 ml of sterilized water for injection
# [4] = Example 3: storage stability of formulations at 5° C., 15° C. and 25° C.; assay type: physicochemical
# Procedure: Compound A1 weighed so as to have the composition shown in Table 7 below and each of the buffer solutions were dissolved in water for injection to obtain a uniform solution. These solutions were filled in glass ampoules and sealed. Each pH in Example 3 was measured during each storage period using a pH meter HM-30R (manufactured by DKK-TOA CORPORATION).
# The residual ratio of Compound A1 and the production of each of the decomposition products at 5° C., 15° C., and 25° C. were evaluated according to a test method described below.
# Test method: In the solution after the storage, the residual ratio was analyzed according to a normal method using a liquid chromatography apparatus (ACQUITY UPLC H-Class; measurement wavelength: 210 nm). At this time, XSELECT CSH C18 (2.1 mm×100 mm, 3.5 μm, manufactured by Waters Corporation) was used as a column.
# Calculation for obtaining the residual ratio (%) of Compound A1 and each of the decomposition products (%) during each storage period is as follows.
# Residual ratio (%) of Compound A1=peak area of Compound A1 in sample solution/sum of peak area of sample solution×100
# Each of decomposition products (%)=peak area of each of decomposition products in sample solution/sum of peak area of sample solution×100
# [5] = test system: serum Ca concentration; assay: Serum Ca concentration in bilaterally nephrectomized rats after single intravenous administration; assay type: in vivo, rat
# Source text: After quarantine and acclimatization periods of 6 days, fifty-one rats (Crl: CD (SD), male) aged 7 weeks were fed a 100% sucrose diet ad libitum from four days before the surgery. On the day of the surgery, skin incisions were made on the back at the sites of the right and left kidneys under isoflurane anesthesia and the renal capsules were removed to ligate the renal arteries and veins and the ureters using threads before removing the right and left kidneys. A penicillin solution was given upon suturing, and 5 mL of physiological saline was intraperitoneally administered before returning the rats into the breeding cages.
# On the day of administering the test substance, for example, a day after the bilaterally nephrectomy, approximately 100 μL of blood was collected from the tail vein without anesthesia using a capillary tube, which was centrifuged in a high speed refrigerated microcentrifuge (10,000 rpm, 5 min, 4° C.) to separate the serum. Thereafter, the serum Ca concentration was measured with a dri-chemanalyzer (model number: FUJI DRI-CHEM 7000, manufacturer: FUJI FILM Medical Co., Ltd.) to select individuals with a serum Ca concentration of 8.0 mg/dL or more and less than 14.0 mg/dL.
# On a day after the bilaterally nephrectomy, the given doses were calculated based on the weight of the selected animals on that day. Group 1 was given a medium (physiological saline), Groups 2, 3 and 4 were given the Compound A1 solution (0.3, 3 and 30 mg/mL, respectively), and Groups 5, 6, 7 and 8 (5 rats per group) were given the comparative compound (0.3, 1, 3 and 10 mg/mL, respectively), each given a single dose of 1 ml/kg from the tail vein. Prior to the administration (0 hours), and 24 and 48 hours after the administration, approximately 300 μL of blood was collected without anesthesia from the tail vein using capillary tubes for obtaining the serum. The blood for obtaining the serum was left to stand at room temperature, and centrifuged in a high speed refrigerated microcentrifuge (10,000 rpm, 5 min, 4° C.) within a period of 30 minutes to 2 hours after the blood collection to collect the serum.
# Thereafter, the serum Ca was analyzed with COBAS analyzer (Model number: COBAS INTEGRA 400 plus, manufacturer: Roche Diagnostics K.K.), and the remaining serum was stored in an ultra-low freezer (temperature set to −80±15° C.) until the day of iPTH measurement. On the day of iPTH measurement, the serum was melted at room temperature for measurement.
# A 30 mg/ml Compound A1 solution ([…] of Compound A1 dissolved in 10 ml of physiological saline) was diluted with physiological saline to prepare 0.3 mg/ml and […] Compound A1 solutions.
# 149 mg of etelcalcetide (Ac-c(C) arrrar-NH2) TFA salt (WO 2011/014707 A) was prepared to have pH of 6 to 8 with 7 ml of physiological saline and a 0.5N aqueous NaOH solution, and physiological saline was further added thereto to make 10 ml. The prepared 10 mg/ml comparative compound solution was diluted with physiological saline to obtain 0.3 mg/ml and 1 mg/ml comparative compound solutions.
structure (smiles),measurement,setting,value
"Cc1c(Cl)cc(S(=O)(=O)[O-])cc1NC(=O)NC[C@H](N)C(=O)O.[Na+] [Compound A1, sodium 3-{[(2S)-2-amino-2-carboxyethyl]carbamoylamino}-5-chloro-4-methylbenzenesulfonate]",elimination from the plasma,[1]; intravenously administered to a normal rat,rapidly eliminated
same,main route of excretion,[1]; non-clinical studies,renal excretion
same,dose estimated to maintain a concentration higher than 1.4 ng/mL for 72 hours,[2]; PK simulation,0.06 mg/man
same,EC50 (estimated),[2]; scaling factor applied to human,> 1.4 ng/mL
same,percentage decrease in the serum iPTH concentration,[3]; 0.05 mg dose group,8%
same,percentage decrease in the serum iPTH concentration,[3]; 0.1 mg dose group,25%
same,percentage decrease in the serum iPTH concentration,[3]; 0.2 mg dose group,36%
same,accumulating property,[3]; repeated administration,no accumulating property
same,elimination by dialysis,[3]; repeated administration,rapidly eliminated by dialysis
same,trough concentration before the dialysis following the longest interval,[3]; repeated administration,generally constant
same,decrease in the corrected Ca,"[3]; repeated administration, 0.05 mg dose group (mild)",observed
same,decrease in the corrected Ca,"[3]; repeated administration, 0.1 mg dose group",not observed
same,decrease in the corrected Ca,"[3]; repeated administration, 0.2 mg dose group (mild)",observed
same,form present in the plasma,"[3]; repeated administration, three times a week for 22 days",mainly as an unchanged substance
same,storage stability,"[4]; formulations in the pH range of 6.4 to 6.9, 5° C., for 30 months",excellent storage stability
same,storage stability,"[4]; formulations in the pH range of 6.4 to 6.9, 15° C., for 12 months",excellent storage stability
same,storage stability,"[4]; formulations in the pH range of 6.4 to 6.9, 25° C. (60% RH), for 6 months",excellent storage stability
same,mean serum Ca concentration,"[5]; 0.3 mg/kg single i.v., 24 hours after the administration",9.07 mg/dL
same,mean serum Ca concentration,"[5]; 0.3 mg/kg single i.v., 48 hours after the administration",10.24 mg/dL
same,mean serum Ca concentration,"[5]; 3 mg/kg single i.v., 24 hours after the administration",7.97 mg/dL
same,mean serum Ca concentration,"[5]; 3 mg/kg single i.v., 48 hours after the administration",8.55 mg/dL
same,mean serum Ca concentration,"[5]; 30 mg/kg single i.v., 24 hours after the administration",7.99 mg/dL
same,mean serum Ca concentration,"[5]; 30 mg/kg single i.v., 48 hours after the administration",8.14 mg/dL
same,lower limit value of the serum Ca concentration (simulated),"[5]; logistic curve fitting, 48 hours after the administration vs given dose",8.072 mg/dL

# Reference: patent US20220142958A1, “MEDICINAL COMPOSITION HAVING EXCELLENT STABILITY” (EA Pharma Co., Ltd., priority 2019, published 2022)
